In patent US20240158370A1, “CK1 alpha AND DUAL CK1 alpha / GSPT1 DEGRADING COMPOUNDS” (Innovo Therapeutics, Inc., priority 2022, published 2024):
pEC50: −log10 of the molar value.

Key:
Assay type in all cases: cell-based
CK1α = molecular target: T1, CK1α (Homo sapiens, UniProt P48729+Q96SW2); experiment: HiBiT degradation assay, CK1α, Procedure A; conditions: six hours
T1 construct: CSNK1A1-HiBit KI HEK293(LgBit) Cells; host or cells: HEK293(LgBit) knock-in cells
How it was run: (§1)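 Six-hour treatment at 37° C, ten doses between 10 μM and 0.005 μM, then HiBiT lytic luminescence. Fitted DC50 and Ymin.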

Z-138 cells = experiment: Z-138 Proliferation Assay (Cell Titer-Glo); conditions: 72 hours; for Ymin (%): % remaining (percent of DMSO control); for pEC50: Homo sapiens, Cell Titer-Glo, 4-parameter curve fit
Experimental: Z-138 Proliferation Assay
Z-138 cells were cultured in IMDM Medium supplemented with 10% heat in-activated fetal bovine serum and 1% Penicillin-Streptomycin.
10 mM stocks of compound were made from fresh powder. DMSO was added to solid compound so that the final concentration was 10 mM. Compounds were vortexed and allowed to sit for 5 minutes to ensure complete solubility. Solvated compound was aliquoted into 1 ml Eppendorf tubes and stored in a −20° C. freezer.
Z-138 cells were maintained in culture using standard cell culturing techniques.
Cells were maintained at a density of 0.8×10^6 cells/ml.
Re-constitute cell titer-glo reagent according to manufacturer's protocol.
Z-138 cells were removed from culture and cell viability and density were determined using a CellDrop™ Automated Cell Counter with Tryphan blue stain according to manufacturer's protocols. Cells were centrifuged and resuspended using fresh media to a cell density of 0.1×10^6 cells/ml. […] 40 μl of cell suspension was added to the wells of a 384 well tissue culture plate (4,000 cells/well final). Upon completing the addition of the cells to the plate, the plates were centrifuged for 30 seconds at 300 rpms to help the cells settle and to bring air bubbles to the top of the wells. Air bubbles were popped using a pipette tip.
10-point dose response curves were performed using a D300e Digital Dispenser. The highest concentration of compound used in the assay was 10,000 nM. 1:2 dilutions were performed over a 10-point range with the final DMSO concentration being 0.1%. The cells were cultured for 72 hours in the presence of compound.
After 72 hours, the cell plates were removed from the incubator and allowed to equilibrate to room temperature (about 15 minutes). 20 μl of cell titer-glo reagent was added to each well of the 384 well plate. Incubated the plate for 30 minutes in the dark. After 30 minutes, ensured that there were no air bubbles in the plate (popped bubbles with pipette tip if necessary) and analyzed plate using a luminometer.
EC50 curves were generated using Prism Graph Pad. In brief, POCs (percent of control, compound/DMSO control×100) were plotted against the compound concentrations (log scale). EC50 curves were generated using a 4-parameter curve fit.

GSPT1 [1] = molecular target: T2, GSPT1 (Homo sapiens, UniProt P15170+Q96SW2); experiment: HiBiT degradation assay, GSPT1, Procedure A; parameters: HiBit-GSPT1 KI HEK293(LgBit) Cells; host or cells: HEK293(LgBit) knock-in cells; conditions: six hours
How it was run: as §1

GSPT1 [2] = molecular target: T2, GSPT1; experiment: HiBiT degradation assay, GSPT1, Procedure B (Molt 4_hGSPT1_HiBIT cells); parameters: Molt 4_hGSPT1_HiBIT N-terminus tagged cells were generated using CRISPR technology; endogenous in cells; host or cells: Molt 4 cells, CRISPR-edited; conditions: six hours
How it was run: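 CRISPR N-terminal HiBiT-tagged Molt 4 cells at 1×10^6 cells/ml were treated 6 h at 37° C with compounds (10-point, 10 μM to 0.005 μM, 0.1% DMSO). Remaining HiBiT-GSPT1 was read by lytic luminescence; DC50 and Ymin (% remaining) from a 4-parameter fit.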

T2 sequence (P15170 whole entry): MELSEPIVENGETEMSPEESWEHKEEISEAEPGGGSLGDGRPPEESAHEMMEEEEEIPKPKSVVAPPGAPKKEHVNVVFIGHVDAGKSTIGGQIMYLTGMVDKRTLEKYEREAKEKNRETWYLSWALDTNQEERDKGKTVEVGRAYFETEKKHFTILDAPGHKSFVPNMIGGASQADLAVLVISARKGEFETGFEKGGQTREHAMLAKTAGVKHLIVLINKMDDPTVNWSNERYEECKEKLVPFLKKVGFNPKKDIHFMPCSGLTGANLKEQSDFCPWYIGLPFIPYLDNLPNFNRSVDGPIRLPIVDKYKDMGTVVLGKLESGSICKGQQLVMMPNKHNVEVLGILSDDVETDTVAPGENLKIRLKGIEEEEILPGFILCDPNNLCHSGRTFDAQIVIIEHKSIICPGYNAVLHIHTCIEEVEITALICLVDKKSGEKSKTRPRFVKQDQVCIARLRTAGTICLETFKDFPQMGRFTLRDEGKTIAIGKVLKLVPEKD
T2 sequence (Q96SW2 whole entry): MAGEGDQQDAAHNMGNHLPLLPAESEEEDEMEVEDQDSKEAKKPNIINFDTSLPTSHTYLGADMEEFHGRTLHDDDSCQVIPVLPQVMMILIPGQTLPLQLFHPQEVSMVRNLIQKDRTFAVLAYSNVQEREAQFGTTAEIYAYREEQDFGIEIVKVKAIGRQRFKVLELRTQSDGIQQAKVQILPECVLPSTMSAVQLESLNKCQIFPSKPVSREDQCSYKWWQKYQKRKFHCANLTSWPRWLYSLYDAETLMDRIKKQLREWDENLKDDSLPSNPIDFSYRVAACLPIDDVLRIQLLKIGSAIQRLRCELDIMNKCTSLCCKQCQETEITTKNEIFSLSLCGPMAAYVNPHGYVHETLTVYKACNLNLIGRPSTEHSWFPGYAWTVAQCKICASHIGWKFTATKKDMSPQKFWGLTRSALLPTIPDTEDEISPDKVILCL
T2 sequence (Q16531 whole entry partner): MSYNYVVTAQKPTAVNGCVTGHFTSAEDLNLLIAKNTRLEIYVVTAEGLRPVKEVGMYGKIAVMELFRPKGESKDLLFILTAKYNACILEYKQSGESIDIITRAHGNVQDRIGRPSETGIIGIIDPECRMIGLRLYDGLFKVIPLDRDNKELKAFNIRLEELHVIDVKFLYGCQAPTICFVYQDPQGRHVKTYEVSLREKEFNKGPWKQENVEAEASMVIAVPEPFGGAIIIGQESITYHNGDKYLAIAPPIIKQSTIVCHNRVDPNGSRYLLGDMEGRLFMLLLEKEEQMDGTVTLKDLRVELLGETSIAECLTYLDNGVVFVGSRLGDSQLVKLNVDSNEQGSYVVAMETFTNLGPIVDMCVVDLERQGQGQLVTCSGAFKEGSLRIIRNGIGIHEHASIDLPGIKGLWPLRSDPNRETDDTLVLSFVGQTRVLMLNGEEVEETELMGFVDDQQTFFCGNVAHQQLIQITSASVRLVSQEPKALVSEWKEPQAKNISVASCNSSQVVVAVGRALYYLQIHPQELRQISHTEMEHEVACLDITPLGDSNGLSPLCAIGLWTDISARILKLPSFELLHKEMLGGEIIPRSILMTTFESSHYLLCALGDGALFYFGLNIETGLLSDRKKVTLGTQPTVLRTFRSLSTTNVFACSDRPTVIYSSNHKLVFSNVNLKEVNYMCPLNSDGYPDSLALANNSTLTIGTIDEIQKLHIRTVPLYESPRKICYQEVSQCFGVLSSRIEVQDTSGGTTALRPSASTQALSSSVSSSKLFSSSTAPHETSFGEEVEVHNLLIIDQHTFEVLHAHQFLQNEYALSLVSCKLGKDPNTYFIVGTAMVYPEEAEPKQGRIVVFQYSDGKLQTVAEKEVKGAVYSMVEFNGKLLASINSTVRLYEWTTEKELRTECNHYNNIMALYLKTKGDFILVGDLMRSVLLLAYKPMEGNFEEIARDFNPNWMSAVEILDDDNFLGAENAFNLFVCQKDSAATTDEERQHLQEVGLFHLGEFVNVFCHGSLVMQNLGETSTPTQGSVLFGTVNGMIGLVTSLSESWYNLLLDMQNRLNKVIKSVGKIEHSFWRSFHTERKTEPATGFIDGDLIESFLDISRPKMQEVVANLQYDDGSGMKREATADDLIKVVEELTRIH
T1 sequence (P48729 whole entry): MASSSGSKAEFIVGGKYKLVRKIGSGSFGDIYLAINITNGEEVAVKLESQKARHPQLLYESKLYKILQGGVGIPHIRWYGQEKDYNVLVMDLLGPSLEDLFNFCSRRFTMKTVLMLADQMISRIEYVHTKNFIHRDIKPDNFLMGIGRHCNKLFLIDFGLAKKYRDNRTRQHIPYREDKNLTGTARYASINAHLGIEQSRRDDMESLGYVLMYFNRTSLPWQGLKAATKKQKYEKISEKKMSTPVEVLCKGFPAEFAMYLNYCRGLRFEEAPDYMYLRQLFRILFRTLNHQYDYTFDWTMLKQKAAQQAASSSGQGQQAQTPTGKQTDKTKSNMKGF
T1 sequence (Q96SW2 whole entry): as the sequence (Q96SW2 whole entry) above
T1 sequence (Q16531 whole entry partner): as the sequence (Q16531 whole entry partner) above

| Compound | CK1α Ymin (CK1α) | DC50 (CK1α) | Ymin (%) (Z-138 cells) | pEC50 (Z-138 cells) | DC50 (GSPT1 [1]) | GSPT1 Ymin (GSPT1 [1]) | DC50 (GSPT1 [2]) | GSPT1 Ymin (GSPT1 [2]) |
| --- | --- | --- | --- | --- | --- | --- | --- | --- |
| Cn1ncc(-c2ccc3c(c2)CN(C2CCC(=O)NC2=O)C3=O)c1C1CCCCC1 (stereo not drawn) [Example 588] | E (E = >25-75% remaining) | < 25 nM | F (>25-50% remaining) | 7.00 to 8.00 | ≥ 25 nM | F (F = >75-100% remaining) | – | – |
| Cn1cnc(-c2ccc3c(c2)CN(C2CCC(=O)NC2=O)C3=O)c1C1CCCCC1 (stereo not drawn) [Example 594] | C (C = 0-10% remaining) | < 25 nM | D (0-10% remaining) | > 8.00 | < 25 nM | E (E = >25-75% remaining) | – | – |
| Cn1nc(-c2ccc3c(c2)CN(C2CCC(=O)NC2=O)C3=O)nc1C1CCC(F)(F)CC1 (stereo not drawn) [Example 606, 3-(5-(5-(4,4-difluorocyclohexyl)-1-methyl-1H-1,2,4-triazol-3-yl)-1-oxoisoindolin-2-yl)piperidine-2,6-dione] | E (E = >25-75% remaining) | ≥ 25 nM | F (>25-50% remaining) | 7.00 to 8.00 | ≥ 25 nM | F (F = >75-100% remaining) | – | – |
| Cn1nc(-c2ccc3c(c2)CN(C2CCC(=O)NC2=O)C3=O)nc1C1CCCCC1 (stereo not drawn) [Example 614, 3-(5-(5-cyclohexyl-1-methyl-1H-1,2,4-triazol-3-yl)-1-oxoisoindolin-2-yl)piperidine-2,6-dione] | D (D = >10- 25% remaining) | ≥ 25 nM | F (>25-50% remaining) | 7.00 to 8.00 | ≥ 25 nM | F (F = >75-100% remaining) | – | – |
| Cc1c(-c2ccc3c(c2)CN(C2CCC(=O)NC2=O)C3=O)nc(C2CCOCC2)n1C (stereo not drawn) [Example 615, 3-(5-(1,5-dimethyl-2-(tetrahydro-2H-pyran-4-yl)-1H-imidazol-4-yl)-1-oxoisoindolin-2-yl)piperidine-2,6-dione] | C (C = 0-10% remaining) | < 25 nM | E (>10-25% remaining) | 7.00 to 8.00 | < 25 nM | F (F = >75-100% remaining) | – | – |
| Cn1nc(-c2ccc3c(c2)CN(C2CCC(=O)NC2=O)C3=O)nc1-c1ccc(C(F)(F)F)cc1 (stereo not drawn) [Example 619, 3-(5-(1-methyl-5-(4-(trifluoromethyl)phenyl)-1H-1,2,4-triazol-3-yl)-1-oxoisoindolin-2-yl)piperidine-2,6-dione] | E (E = >25-75% remaining) | < 25 nM | F (>25-50% remaining) | 7.00 to 8.00 | ≥ 25 nM | F (F = >75-100% remaining) | – | – |
| O=C1CCC(N2Cc3cc(-c4cc(-c5ccccc5)n(C5CC5)n4)ccc3C2=O)C(=O)N1 (stereo not drawn) [Example 621, 3-(5-(1-cyclopropyl-5-phenyl-1H-pyrazol-3-yl)-1-oxoisoindolin-2-yl)piperidine-2,6-dione] | C (C = 0-10% remaining) | < 25 nM | D (0-10% remaining) | > 8.00 | – | – | ≥ 25 nM | F (F = >75-100% remaining) |
| Cn1nc(-c2ccc3c(c2)CN(C2CCC(=O)NC2=O)C3=O)nc1-c1ccc(Cl)cc1 (stereo not drawn) [Example 622, 3-(5-(5-(4-chlorophenyl)-1-methyl-1H-1,2,4-triazol-3-yl)-1-oxoisoindolin-2-yl)piperidine-2,6-dione] | D (D = >10- 25% remaining) | < 25 nM | E (>10-25% remaining) | 7.00 to 8.00 | – | – | ≥ 25 nM | E (E = >25-75% remaining) |
| Cn1ncc(-c2ccc3c(c2)CN(C2CCC(=O)NC2=O)C3=O)c1C1CCCC1 (stereo not drawn) [Example 692] | E (E = >25-75% remaining) | ≥ 25 nM | E (>10-25% remaining) | 6.30 to 7.00 | – | – | ≥ 25 nM | F (F = >75-100% remaining) |
| O=C1CCC(N2Cc3cc(-c4nc(-c5ccccc5)n(C(F)F)n4)ccc3C2=O)C(=O)N1 (stereo not drawn) [Example 703, 3-(5-(1-(difluoromethyl)-5-phenyl-1H-1,2,4-triazol-3-yl)-1-oxoisoindolin-2-yl) piperidine-2,6-dione] | D (D = >10- 25% remaining) | < 25 nM | E (>10-25% remaining) | 7.00 to 8.00 | ≥ 25 nM | F (F = >75-100% remaining) | – | – |
| O=C1CCC(N2Cc3cc(-c4nc(-c5ccccc5)n(C5CC5)n4)ccc3C2=O)C(=O)N1 (stereo not drawn) [Example 705, 3-(5-(1-cyclopropyl-5-phenyl-1H-1,2,4-triazol-3-yl)-1-oxoisoindolin-2-yl)piperidine-2,6-dione] | C (C = 0-10% remaining) | < 25 nM | E (>10-25% remaining) | 7.00 to 8.00 | < 25 nM | F (F = >75-100% remaining) | – | – |
| O=C1CCC(N2Cc3cc(-c4cc(-c5ccccc5)n(CC(F)(F)F)n4)ccc3C2=O)C(=O)N1 (stereo not drawn) [Example 710, 3-(1-oxo-5-(5-phenyl-1-(2,2,2-trifluoroethyl)-1H-pyrazol-3-yl)isoindolin-2-yl)piperidine-2,6-dione] | C (C = 0-10% remaining) | < 25 nM | E (>10-25% remaining) | > 8.00 | – | – | < 25 nM | F (F = >75-100% remaining) |
| Cn1nc(-c2ccc3c(c2)CN(C2CCC(=O)NC2=O)C3=O)cc1-c1ccc(Cl)cc1 (stereo not drawn) [Example 717, 3-(5-(5-(4-chlorophenyl)-1-methyl-1H-pyrazol-3-yl)-1-oxoisoindolin-2-yl)piperidine-2,6-dione] | D (D = >10- 25% remaining) | < 25 nM | E (>10-25% remaining) | 7.00 to 8.00 | – | – | ≥ 25 nM | F (F = >75-100% remaining) |
| CC(C)c1nc(-c2ccc3c(c2)CN(C2CCC(=O)NC2=O)C3=O)c(-c2ccccc2)n1C (stereo not drawn) [Example 726, 3-(5-(2-isopropyl-1-methyl-5-phenyl-1H-imidazol-4-yl)-1-oxoisoindolin-2-yl)piperidine-2,6-dione] | C (C = 0-10% remaining) | < 25 nM | D (0-10% remaining) | > 8.00 | – | – | ≥ 25 nM | F (F = >75-100% remaining) |
| CC(C)c1nc(-c2ccc3c(c2)CN(C2CCC(=O)NC2=O)C3=O)cn1-c1ccccc1 (stereo not drawn) [Example 728, 3-(5-(2-isopropyl-1-phenyl-1H-imidazol-4-yl)-1-oxoisoindolin-2-yl)piperidine-2,6-dione] | C (C = 0-10% remaining) | < 25 nM | E (>10-25% remaining) | > 8.00 | – | – | ≥ 25 nM | F (F = >75-100% remaining) |
| Cc1cn(-c2ccccc2)c(-c2ccc3c(c2)CN(C2CCC(=O)NC2=O)C3=O)n1 (stereo not drawn) [Example 729, 3-(5-(4-methyl-1-phenyl-1H-imidazol-2-yl)-1-oxoisoindolin-2-yl)piperidine-2,6-dione] | C (C = 0-10% remaining) | < 25 nM | D (0-10% remaining) | > 8.00 | – | – | < 25 nM | E (E = >25-75% remaining) |
| CCc1cn(-c2ccccc2)c(-c2ccc3c(c2)CN(C2CCC(=O)NC2=O)C3=O)n1 (stereo not drawn) [Example 730, 3-(5-(4-ethyl-1-phenyl-1H-imidazol-2-yl)-1-oxoisoindolin-2-yl)piperidine-2,6-dione] | C (C = 0-10% remaining) | < 25 nM | D (0-10% remaining) | > 8.00 | – | – | < 25 nM | E (E = >25-75% remaining) |
